Source: patent US12077503B2, “Substituted cyclic amides and their use as herbicides” (FMC CORPORATION, priority 2015, dated 2024)

Experiments:
Experiment in all cases: Test A postemergence
Type in all cases: in vivo
[1] = test system: giant foxtail (Setaria faberii); conditions: Setaria faberi, post-emergence, 240 h, 125 g ai/ha, postemergence; visual injury after approximately 10 d; 0 to 100 scale (0 no effect, 100 complete control); read-out: Plant response rating, Foxtail, Giant
Procedure, shortened: (§1)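 Preemergence soil spray on seeded pots or post-emergence spray on 1–2 leaf plants, in loam–sand blend. Greenhouse ~10 d. Visual rating 0–100 against untreated plants.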

[2] = test system: barnyardgrass (Echinochloa crus-galli); conditions: Echinochloa crus-galli, post-emergence, 240 h, 125 g ai/ha, postemergence; visual injury after approximately 10 d; 0 to 100 scale (0 no effect, 100 complete control); read-out: Plant response rating, Barnyardgrass
Procedure, shortened: as §1

[3] = test system: Galium (catchweed bedstraw, Galium aparine); conditions: Galium, post-emergence, 240 h, 125 g ai/ha, postemergence; visual injury after approximately 10 d; 0 to 100 scale (0 no effect, 100 complete control); read-out: Plant response rating, Galium
Procedure, shortened: as §1

[4] = test system: pigweed (Amaranthus retroflexus); conditions: Amaranthus retroflexus, post-emergence, 240 h, 125 g ai/ha, postemergence; visual injury after approximately 10 d; 0 to 100 scale (0 no effect, 100 complete control); read-out: Plant response rating, Pigweed
Procedure, shortened: as §1

corn (Zea mays) = conditions: Zea mays, post-emergence, 240 h, 125 g ai/ha, postemergence; visual injury after approximately 10 d; 0 to 100 scale (0 no effect, 100 complete control)
Procedure, shortened: as §1

| SMILES | pest or weed control at 125 g/ha [1] | pest or weed control at 125 g/ha [2] | pest or weed control at 125 g/ha [3] | pest or weed control at 125 g/ha [4] | Corn plant response rating (crop injury, 0 = no effect, 100 = complete kill) at 125 g/ha (corn (Zea mays)) |
| --- | --- | --- | --- | --- | --- |
| C=CCN1C[C@H](c2ccc(OC)c(F)c2)[C@@H](C(=O)Nc2ccccc2C(F)(F)F)C1=O [Compound 723] | 0% | 0% | 0% | 0% | 0% |
| O=C1NC[C@H](c2ccc3c(c2)OCO3)[C@H]1C(=O)Nc1cccc(F)c1F [Compound 731] | 50% | 70% | 20% | 0% | 0% |
| Cc1ccc([C@H]2CN(C)C(=O)[C@@H]2C(=O)Nc2cccc(F)c2C)cc1C [Compound 732] | 90% | 90% | 30% | 0% | 70% |
| CCc1cc(CC)cc([C@H]2CN(C)C(=O)[C@@H]2C(=O)Nc2ccccc2C(F)(F)F)c1 [Compound 737] | 70% | 40% | 30% | 20% | 40% |
| O=C1NC[C@H](c2ccc(C(F)(F)F)cc2)[C@H]1C(=O)Nc1ccccc1C1CC1 [Compound 746] | 50% | 20% | 50% | 0% | 0% |
| CN1C[C@H](c2ccc(C(F)(F)F)cc2)[C@@H](C(=O)Nc2ccccc2C2CC2)C1=O [Compound 747] | 70% | 40% | 60% | 30% | 0% |
| O=C1NC[C@H](c2cccc(C(F)(F)F)c2)[C@H]1C(=O)Nc1ccccc1C1CC1 [Compound 748] | 0% | 40% | 0% | 0% | 0% |
| O=C1NC[C@H](c2cscn2)[C@H]1C(=O)Nc1ccccc1F [Compound 752] | 50% | 60% | 70% | 0% | 0% |
| O=C1NC[C@H](c2cccc3c2OC(F)(F)O3)[C@H]1C(=O)Nc1ccccc1F [Compound 754] | 60% | 60% | 0% | 0% | 0% |
| O=C1NC[C@H](c2cc(F)c(F)c(F)c2)[C@H]1C(=O)Nc1ccc(F)c(F)c1F [Compound 756] | 80% | 90% | 50% | 0% | 50% |
